For 5 molecules, IC50 results are on record in patent publication US20090099167A1, “Organic compounds” (Novartis Institutes for Biomedical Research, priority 2004, published 2009).

Common to all, as to format: biochemical
One assay deals with c-Src kinase (Homo sapiens, UniProt P12931). The assay is described as follows: c-Src kinase inhibition. To be noted: Table 4; read-out: s-Scr, activity (IC50 for kinase inhibition). The text has this: An appropriate assay is described in Andrejauskas-Buchdunger et al., Cancer Res. 52, 5353-8 (1992).
Assay [1] addresses T1, human insulin receptor (Ins-R) (Homo sapiens, UniProt P06213).
T1 construct: encoding the amino acid region 919-1343 of the intra-cytoplasmic kinase domain of the human insulin receptor; made in house; host or cells: baculovirus (Bac-to-Bac)
The assay is described as follows: Ins-R tyrosine kinase assay, GST-Ins-R. As to conditions: Table 4; read-out: Ins-R, activity (IC50 for kinase inhibition). The text has this:
The inhibition of IGF-1R and Ins-R can be determined as follows: The baculovirus donor vector pfbgx3IGFIRcd is used to generate a recombinant baculovirus that expresses the amino acid region 950-1337 of the mature peptide cytoplasmic domain of the human IGF-IR. To generate the cDNA fragment encoding the amino acid region 919-1343 of the intra-cytoplasmic kinase domain of the human insulin receptor, pC5hInsR is used. The fragments of the human IGF-IR and Ins-R are cloned, expressed and small-scale purified as a factor Xa-cleavable glutathione-S-transferase (GST)-fusion protein using the Bac-to-Bac™ system (GIBCO BRL) of recombinant baculovirus generation. Virus containing media is collected from the transfected cell culture and used for infection to increase its titer. Virus containing media obtained after two rounds of infection is used for large-scale protein expression. Cell extracts are prepared and loaded onto a glutathione-Sepharose (Pharmacia) column. After washing, the GST-tagged proteins are then eluted with a glutathione-containing buffer. Purified protein is stored at −70° C. in elution buffer. Tyrosine protein kinase assays with purified GST-IGF-1R and GST-ins-R are carried in a final volume of 30 μl containing 20 mM Tris-HCl, pH 7.6, 10 mM MgCl2, 0.01 mM Na3VO4, 1% DMSO, 1 mM DTT, 3 μg/ml poly(Glu,Tyr) 4:1 and 10 μM ATP (γ-[^33P]-ATP 0.1 μCi). The assay is performed in 96-well plates at ambient temperature for 20 min and terminated by addition of 25 μl 0.05 M EDTA pH 7.0. An aliquot of 40 μl is spotted with a multichannel dispenser on Whatman P81 membranes mounted in a Millipore Microtiter filter manifold connected to a low vacuum source. After elimination of liquid, the membrane is transferred to a sequence of 4 washing baths containing 0.5% H3PO4 and one with EtOH (shaking incubation for 10 min each), dried, mounted onto a Hewlett Packard TopCount manifold added 10 μl Microscint® and counted. Compounds of formula (I) show up to 90% inhibition of Ins-R at 10,000 nM, preferably between 60-90% inhibition. The inhibition of Tek can be determined as follows: The procedure of the expression, purification and assay these kinases has been described. Fabbro et al., Pharmacol. Ther. 82(2-3) 293-301 (1999). In brief, the glutathione S-transferase (GST) gene from the pAcG1 vector (Pharmingen) is excised with EcoRV and EcoRI and inserted into the cloning site of the Fast-Bac baculoviral vector (GIBCO) creating a 5530 bp vector with N-terminal cloning sites derived from the pAcG1 fusion vector (FBG0). The C-terminal cloning site may be any cloning site (from the Fast-Bac vector) downstream of the N-terminal cloning site used. N-terminally GST-fused (pAcG1, Pharmingen) KDR, Flt-1, Flk-1, Tek and PDGFR-β kinase domains are obtained from ProQinase, Freiburg, Germany. Tek is recloned into the FBG1 vector by EcoRI excision and ligation into EcoRI digested FBG1 (FBG1-Tek). The coding sequences for the whole cytoplasmic domain of c-Kit (aa 544-976) and c-Fms (aa 538-972) are amplified by PCR from human uterus and from human bone marrow cDNA libraries (Clontech), respectively. The amplified DNA fragments are fused to GST by cloning them into FBG1 as BamHI-EcoRI insertions, to yield FBG1-c-Kit and FBG1-c-Fms. Tek is recloned into the FBG0 transfer vector by EcoRI excision and ligation into EcoRI digested FBG0 (FBG-Tie2/Tek). FGFR-1 and c-met kinase domains are obtained by PCR from human A431 cells. N-terminal primers contain an overhanging EcoRI site, while C-terminal primers contain a XhoI site to aid cloning into the transfer vectors. After digestion of both the PCR fragments and FBG0 the cleavage products are gel-purified and ligated together to form the kinase constructs (FBG-Met, FBG-FGFR-1).

Another assay concerns the target T2, c-Abl kinase (Homo sapiens, UniProt P00519).
T2 construct: The His-tagged kinase domain of c-Abl is cloned and expressed in the baculovirus/Sf9 system; His; made in house; host or cells: Sf9 (baculovirus)
T2 sequence (P00519 242-493 limits assumed): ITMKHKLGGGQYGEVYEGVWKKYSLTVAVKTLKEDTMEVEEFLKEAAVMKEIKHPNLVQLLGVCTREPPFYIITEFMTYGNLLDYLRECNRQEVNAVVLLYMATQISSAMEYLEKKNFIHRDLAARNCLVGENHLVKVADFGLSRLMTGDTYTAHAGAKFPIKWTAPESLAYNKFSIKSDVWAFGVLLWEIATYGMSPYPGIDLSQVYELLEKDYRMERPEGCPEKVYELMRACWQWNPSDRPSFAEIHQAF
The assay is described as follows: c-Abl protein-tyrosine kinase filter binding assay. To be noted: Table 4; read-out: c-abl, activity (IC50 for kinase inhibition). The protocol:
The His-tagged kinase domain of c-Abl is cloned and expressed in the baculovirus/Sf9 system as described by Bhat et al. in J. Biol. Chem. 1997; 272:16170-16175. A protein of 37 kD (c-Abl kinase) is purified by a two-step procedure over a Cobalt metal chelate column followed by an anion exchange column with a yield of 1-2 mg/L of Sf9 cells (Bhat et al., reference cited). The purity of the c-Abl kinase is >90% as judged by SDS-PAGE after Coomassie blue staining. The assay contains (total volume of 30 μL): c-Abl kinase (50 ng), 20 mM Tris.HCl, pH 7.5, 10 mM MgCl2, 10 μM Na3VO4, 1 mM DTT and 0.06 μCi/assay [γ^33 P]-ATP (5 μM ATP) using 30 μg/mL poly-Ala,Glu,Lys,Tyr-6:2:5:1 (Poly-AEKY, Sigma P1152) in the presence of 1% DMSO. Reactions are terminated by adding 10 μL of 250 mM EDTA and 30 μL of the reaction mixture is transferred onto Immobilon-PVDF membrane (Millipore, Bedford, Mass., USA) previously soaked for 5 min with methanol, rinsed with water, then soaked for 5 min with 0.5% H3PO4 and mounted on vacuum manifold with disconnected vacuum source. After spotting all samples, vacuum is connected and each well rinsed with 200 μL 0.5% H3PO4. Membranes are removed and washed on a shaker with 0.5% H3PO4 (4 times) and once with ethanol. Membranes are counted after drying at ambient temperature, mounting in Packard TopCount 96-well frame, and addition of 10 μL/well of Microscint™ (Packard).

The next assay has as its target T3, human Flt-3 (Homo sapiens, UniProt P36888).
T3 construct: expressing the amino acid region amino acids 563-993 of the cytoplasmic kinase domain of human Flt-3; made in house; host or cells: Sf9 (baculovirus)
T3 sequence (P36888 563-993): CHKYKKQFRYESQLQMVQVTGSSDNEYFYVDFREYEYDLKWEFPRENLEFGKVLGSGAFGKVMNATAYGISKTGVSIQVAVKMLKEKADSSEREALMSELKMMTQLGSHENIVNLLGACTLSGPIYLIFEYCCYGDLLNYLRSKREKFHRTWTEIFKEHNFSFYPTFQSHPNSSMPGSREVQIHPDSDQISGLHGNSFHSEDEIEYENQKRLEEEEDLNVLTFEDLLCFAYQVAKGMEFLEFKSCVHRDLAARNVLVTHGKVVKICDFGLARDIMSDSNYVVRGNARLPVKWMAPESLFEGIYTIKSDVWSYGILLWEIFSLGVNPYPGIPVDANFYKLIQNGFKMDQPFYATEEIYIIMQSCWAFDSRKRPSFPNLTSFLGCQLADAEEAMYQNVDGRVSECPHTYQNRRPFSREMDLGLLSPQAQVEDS
The assay is described as follows: Flt3 kinase inhibition, GST-Flt-3, 33P incorporation into poly(Glu,Tyr). As to conditions: Table 4; read-out: Flt-3, activity (IC50 for kinase inhibition). The protocol:
The compounds to be tested are then diluted in culture medium (without FCS, with 0.1% bovine serum albumin) and added to the cells. (Controls comprise medium without test compounds). After two hours' incubation at 37° C., recombinant VEGF is added; the final VEGF concentration is 20 ng/ml). After a further five minutes incubation at 37° C., the cells are washed twice with ice-cold PBS (phosphate-buffered saline) and immediately lysed in 100 μl lysis buffer per well. The lysates are then centrifuged to remove the cell nuclei, and the protein concentrations of the supernatants are determined using a commercial protein assay (BIORAD). The lysates can then either be immediately used or, if necessary, stored at −20° C. A sandwich ELISA is carried out to measure the VEGF-R2 phosphorylation: a monoclonal antibody to VEGF-R2 (for example Mab 1495.12.14; ProQinase, Freiburg, Germany) is immobilized on black ELISA plates (OptiPlate™ HTRF-96 from Packard). The plates are then washed and the remaining free protein-binding sites are saturated with 3% TopBlock® (Juro, Cat. # TB232010) in phosphate buffered saline with Tween 20® (polyoxyethylen(20)-sorbitane monolaurate, ICI/Uniquema) (PBST). The cell lysates (20 μg protein per well) are then incubated in these plates overnight at 4° C. together with an antiphosphotyrosine antibody coupled with alkaline phosphatase (PY20:AP from Zymed). […] The luminescence is measured in a Packard Top Count Microplate Scintillation Counter. The difference between the signal of the positive control (stimulated with VEGF) and that of the negative control (not stimulated with VEGF) corresponds to VEGF-induced VEGF-R2 phosphorylation (=100%). The activity of the tested substances is calculated as percent inhibition of VEGF-induced VEGF-R2 phosphorylation, wherein the concentration of substance that induces half the maximum inhibition is defined as the IC50 (inhibitory dose for 50% inhibition). […] Flt3 kinase inhibition is determined as follows: The baculovirus donor vector pFbacG01 (GIBCO) is used to generate a recombinant baculovirus expressing the amino acid region amino acids 563-993 of the cytoplasmic kinase domain of human Flt-3. The coding sequence for the cytoplasmic domain of Flt-3 is amplified by PCR from human c-DNA libraries (Clontech). The amplified DNA fragments and the pFbacG01 vector are made compatible for ligation by digestion with BamH1 and HindIII. Ligation of these DNA fragments results in the baculovirus donor plasmid Flt-3(1.1). The production of the viruses, the expression of proteins in Sf9 cells and the purification of the GST-fused proteins are performed as follows: Production of virus: Transfer vector (pFbacG01-Flt-3) containing the Flt-3 kinase domain is transfected into the DH10Bac cell line (GIBCO) and the transfected cells are plated on selective agar plates. Colonies without insertion of the fusion sequence into the viral genome (carried by the bacteria) are blue. Single white colonies are picked and viral DNA (bacmid) is isolated from the bacteria by standard plasmid purification procedures. Sf9 or Sf21 cells (American Type Culture Collection) are then transfected in flasks with the viral DNA using Cellfectin reagent. Determination of small scale protein expression in Sf9 cells: Virus containing media is collected from the transfected cell culture and used for infection to increase its titre. Virus containing media obtained after two rounds of infection is used for large-scale protein expression. For large-scale protein expression 100 cm^2 round tissue culture plates are seeded with 5×10^7 cells/plate and infected with 1 mL of virus-containing media (approx. 5 MOIs). After 3 days the cells are scraped off the plate and centrifuged at 500 rpm for 5 min. Cell pellets from 10-20, 100 cm^2 plates, are resuspended in 50 mL of ice-cold lysis buffer (25 mMTris-HCl, pH 7.5, 2 mM EDTA, 1% NP-40, 1 mM DTT, 1 mM PMSF). The cells are stirred on ice for 15 min and then centrifuged at 5000 rpms for 20 min. […]

Some results are limits rather than exact numbers.

Chain of c-Src kinase (P12931 whole entry): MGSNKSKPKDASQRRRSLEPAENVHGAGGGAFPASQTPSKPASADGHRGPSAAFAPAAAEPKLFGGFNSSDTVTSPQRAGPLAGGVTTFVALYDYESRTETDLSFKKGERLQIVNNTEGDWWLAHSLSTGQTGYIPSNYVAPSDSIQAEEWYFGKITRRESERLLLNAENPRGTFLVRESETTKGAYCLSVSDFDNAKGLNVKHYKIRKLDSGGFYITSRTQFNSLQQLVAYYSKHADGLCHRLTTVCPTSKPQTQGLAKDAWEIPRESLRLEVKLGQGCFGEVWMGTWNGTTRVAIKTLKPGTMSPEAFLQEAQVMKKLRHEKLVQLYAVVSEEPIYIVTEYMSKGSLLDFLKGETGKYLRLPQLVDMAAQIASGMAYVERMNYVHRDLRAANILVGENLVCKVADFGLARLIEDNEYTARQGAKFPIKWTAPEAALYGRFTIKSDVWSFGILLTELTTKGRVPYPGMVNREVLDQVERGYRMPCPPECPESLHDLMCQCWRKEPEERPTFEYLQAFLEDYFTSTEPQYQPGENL
T1 sequence (P06213 958-1382 limits assumed): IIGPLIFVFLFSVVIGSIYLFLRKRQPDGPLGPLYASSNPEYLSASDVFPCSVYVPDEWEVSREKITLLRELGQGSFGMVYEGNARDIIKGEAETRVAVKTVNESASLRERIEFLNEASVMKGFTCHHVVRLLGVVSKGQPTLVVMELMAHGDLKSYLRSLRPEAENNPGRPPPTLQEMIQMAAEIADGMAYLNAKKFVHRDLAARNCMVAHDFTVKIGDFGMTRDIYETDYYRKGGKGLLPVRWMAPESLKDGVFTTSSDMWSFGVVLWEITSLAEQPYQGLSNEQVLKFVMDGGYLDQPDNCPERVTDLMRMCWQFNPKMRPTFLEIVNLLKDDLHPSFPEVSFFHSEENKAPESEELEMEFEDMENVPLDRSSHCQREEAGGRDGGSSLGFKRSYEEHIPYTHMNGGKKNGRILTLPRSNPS

On to `CN1CCN(c2ccc(-c3cnn4c(N)c(-c5ccccc5)cnc34)cc2)CC1` [Example 7, 3-[4-(4-Methyl-piperazin-1-yl)-phenyl]-6-phenyl-pyrazolo[1,5-a]pyrimidin-7-ylamine], for which the concentration for half-maximal inhibition (IC50) at c-Src kinase was less than 10 µM.
For `Nc1c(-c2c(Cl)cccc2Cl)cnc2c(-c3ccccc3)cnn12` [Example 16, 6-(2,6-Dichloro-phenyl)-3-phenyl-pyrazolo[1,5-a]pyrimidin-7-ylamine], the IC50 in assay [1] is less than 10 µM.
Turning to `CN1CCN(c2ccc(-c3cnn4c(N)c(-c5csc6ccccc56)cnc34)cc2)CC1` [Example 19, 6-Benzo[b]thiophen-3-yl-3-[4-(4-methyl-piperazin-1-yl)-phenyl]-pyrazolo[1,5-a]pyrimidin-7-ylamine], the IC50 on c-Abl kinase and at c-Src kinase was less than 10 µM throughout.
Regarding `COc1ccccc1-c1cnc2c(-c3ccc(N4CCN(C)CC4)cc3)cnn2c1N` [Example 27, 6-(2-Methoxy-phenyl)-3-[4-(4-methyl-piperazin-1-yl)-phenyl]-pyrazolo[1,5-a]pyrimidin-7-ylamine], the IC50 on c-Src kinase was less than 10 µM.
On to `CN1CCN(c2cccc(-c3cnn4c(N)c(-c5ccsc5)cnc34)c2)CC1` [Example 49, 3-[3-(4-Methyl-piperazin-1-yl)-phenyl]-6-thiophen-3-yl-pyrazolo[1,5-a]pyrimidin-7-ylamine], for which the half-inhibitory concentration (IC50) at human Flt-3 is less than 10 µM.
